These results are taken from patent US4780313A (Takeda Chemical Industries, Ltd., priority 1985, dated 1988).

The subject of data set [1] is Meth-A fibrosarcoma cells (Meth-A tumor cells). The data set can be described thus: Antitumor activity, subcutaneous administration, Meth-A tumor-bearing mice (Examples 1 and 4). To be noted: Table 4, day 21. The format is in vivo, female BALB/c mice. How it is done: (§1) Meth-A fibrosarcoma cells (Meth-A tumor cells) (1×10^6 cells) were transplanted into each female BALB/c mice (weighing about 20 g) subcutaneously in the flank using a syringe. Seven days after tumor transplantation, mice in which tumor was larger than a certain defined size were chosen and grouped and administration of the test agent was started. The agent was administered subcutaneously in the opposite flank relative to the tumor transplantation site once daily for 10 consecutive days. Each ingredient of the test agent was dissolved in physiological saline (solvent) supplemented in a form of a single preparation with 5% of normal mouse serum in a concentration such that the dose of the solution amounted to 0.1 ml/20 g of mouse body weight. The antitumor effect was evaluated by measuring the tumor weight in each mouse 21 days after tumor transplantation, determining the average tumor weight for each group and calculating the tumor weight ratio (T/C %) between the dosed group (T; 5 animals per group) and the untreated control group (C; 5 to 10 animals per group). The daily dose of each ingredients was expressed in terms of the ingredient weight (mcg) per mouse.

Data set [2] can be described thus: Body weight gain of tumor-bearing mice, subcutaneous administration (Examples 1 and 4). In kind it is in vivo, female BALB/c mice. To be noted: Table 4; TMD-5 200 mcg/mouse/day alone s.c. How it is done:
as §1

Setting [3] is: TMD-5 200 mcg/mouse/day alone s.c. x10 days.
[4] abbreviates: TMD-76 200 mcg/mouse/day alone s.c. x10 days.

On to `CC(=O)N[C@H]1C(O)O[C@H](CO)[C@@H](O)[C@@H]1O[C@H](C)C(=O)NC(C)(C)C(=O)N[C@H](CCC(=O)O)C(N)=O` (stereo partly drawn) [TMD-5, N-acetylmuramylaminoisobutyryl-D-isoglutamine], for which, in data set [1] (setting [3]), the “Tumor weight (mg) Mean ± SD” value was 5,662 ± 1,097 mg and the “Tumor weight ratio (T/C %)” value is recorded as 99%. Besides, in data set [2], the “Body weight gain (g) (day 7 to day 21)” value amounted to 3.0 g.

As to `COC(=O)CC[C@@H](NC(=O)[C@@H](NC(=O)[C@@H](C)O[C@H]1[C@H](O)[C@@H](COC(=O)CCC2=C(C)C(=O)C(OC)=C(OC)C2=O)OC(O)[C@@H]1NC(C)=O)C(C)C)C(N)=O` (stereo partly drawn) [TMD-76, 6-0-[3-(2,3-dimethoxy-5-methyl-1,4-benzoquinon-6-yl)propionyl]-N-acetylmuramyl-L-valyl-D-isoglutamine methyl ester], in data set [1] (setting [4]), the “Tumor weight (mg) Mean ± SD” value is reported as 5,550 ± 1,776 mg and the “Tumor weight ratio (T/C %)” value was found to be 97%.
